Data set [1] in a line: Nanoaggregation in Opti-MEM by DLS and TEM. It counts as physicochemical. The following applies: dark; for DLS size distribution: 24 h. As for the experimental part: DLS was used to determine the distribution of particles in complex solutions (50 μM) in Opti-MEM (Gibco complete medium 11058-021, supplemented with 0.2% v/v penicillin/streptomycin (P/S), and 1% v/v glutamine) with or without 2.5% fetal calf serum (FCS) proteins via a ZEN1600 Zetasizer Nano instrument (Malvern Instruments Limited) operated with a 633 nm laser.
The TEM experiments were carried out with a TEM JEOL 1010:100 kV transmission electron microscope using a Formvar/carbon-coated copper grid (Polysciences Inc.). For the preparation of samples, a 1 mM stock aqua solution was diluted to 50 μM by Opti-MEM, after which, each drop (15 μL) of the complex solution was deposited on a parafilm (Bemis, HS234526C). The grids (Electron Microscopy Sciences, 71137) were placed on top of the drops for 5 min and then the excess liquid on the grid was removed with filter paper and air dried for 2 h for the TEM measurement. The TEM measurements were carried out under vacuum conditions.

Data set [2] deals with U87MG cells. The data set is described as follows: Intracellular ROS generation, CellROX Deep Red, flow cytometry. The following applies: 15 µM, 24 h. In general terms: Flow cytometry measures light scatter and fluorescence of single cells or particles in a stream.
Description: The generation of ROS (reactive oxygen species) in U87MG cells was measured using a ROS deep red fluorescence indicator (Abcam, ab186029). U87MG (1 × 10^5, 1 mL) were seeded into 12-well plates and incubated for 24 h in the dark under normoxia. The cells were then treated with 15 μM complexes with Opti-MEM, Λ-[1]Cl2, Δ-[1]Cl2, cisplatin, or Rose Bengal. There are two groups for each drug (dark + light). After 24 h of incubation under normoxia, the plate was washed with cold PBS once, and cells were trypsinized, harvested, and then resuspended in 150 μL of PBS. The cell suspension from the centrifuge tubes was transferred to 96-round-bottom well plates (Thermo Scientific, 268200), and the light group was irradiated for 20 min with 520 nm light (dose = 13.1 J/cm^2). After which, the Cellular ROS Deep Red dye (abcam, ab186029) was added with 1000× dilution, and cells were further stained for 1 h. Untreated cells were maintained as negative controls, whereas a 250 μM tBHP solution in Opti-MEM complete was administered as a positive control for ROS. The levels of intracellular ROS were then determined using the CytoFLEX flow cytometer. Forward versus side scatter (FSC vs SSC) gating was used to select the population of interest and avoid cell debris. A forward scatter height (FSC-H) vs forward scatter area (FSC-A) gating was used for doublet exclusion. Fluorescence measurements were acquired with the APC-A (638 nm excitation, 660/10 nm emission) channel given the known excitation/emission wavelengths of the ROS Deep Red dye (650/675 nm, respectively). All flow cytometry data were processed using FlowLogic 8.5 software.
Data set [3] can be described thus: Octanol-water partition coefficient (log P). The class given is physicochemical. The following applies: shake-flask, octanol-saturated water / water-saturated octanol, shaken 24 h in the dark, room temperature; Ru in water phase by ICP-MS; ± SD from 4 concentration points. The procedure: Each complex was first dissolved in octanol-saturated water (0.5 mM, 500 μL) and centrifuged (2000 rpm, 5 min) to isolate the undissolved solid. 450 μL of the supernatant was taken out as the stock solution; after that, 5, 10, 50, 100, and 150 μL of solution were added to the 15 mL tube, and more octanol-saturated water was added to adjust the final volume to 1 mL. 1 mL of water-saturated octanol was added further, and the tubes were mildly shaken (Gesellschaft für Labortechnik mbH, type3016) for 24 h under dark conditions. After that, the solutions were centrifuged for 5 min at 2000 rpm at room temperature, and 0.5 mL of the water phase (below phase) was moved to a 15 mL centrifuge tube by an Eppendorf pipette. Then, 0.1 mL of 65% HNO3 was added into the tube using an organic pipette gun, and each solution was shaken for 1 h. 9.9 mL of MilliQ water was added into each tube, making a total volume of 10 mL. To detect the Ru content of the stock solution, 10 μL of each stock solution was mixed with 0.490 mL of 65% HNO3, and the mixture was shaken for 1 h. Then, […] of MilliQ water was added to the tube, making a total volume of 10 mL. ICP-MS measurement was performed using a NexION 2000 from PerkinElmer. The ruthenium content in each well was obtained in ppb. The partition coefficients (log P) were calculated using the following eq 3 [drawing 3] 3
where [complex]total is the concentration of the complex in the control sample (where no water-saturated octanol was added) and [complex]water is the concentration of the complex in the aqueous layer.

For data set [4], the system named is A549 cells. The data set is described as follows: 2D cytotoxicity assay, 24 h DLI & no wash, SRB endpoint. It counts as cell-based, human. As to conditions: for EC50: A549 2D monolayer, not washed, n = 3. The procedure: (§1) For each complex, two identical plates were prepared, one of which was irradiated with light, while the other was used as a dark control. […] Finally, at t = 96 h, 100 μL of cold trichloroacetic acid (10% w/v) was added to each well to fix the cells, and all plates were then transferred to a 4 °C refrigerator for 48 h before performing an SRB cell quantification endpoint assay.[72] Trichloroacetic acid was first removed and each plate was gently washed with demi water 3–5 times. Then, each well was dried in the air, and 100 μL of 0.6% SRB solution (0.6% w/v in 1% v/v acetic acid/H2O solution) was added into each well where it was allowed to stain for 30 min. Then, the plates were washed 3–5 times using an acetic acid solution (1% v/v). Once the plate was washed it was allowed to dry overnight. Then, 200 μL of 10 mM Tris base buffer was added to each well and the plate was allowed to sit on an orbital shaker for 0.5–16 h. After mixing, the absorbance of each well was determined by an M1000 Tecan Reader, reading at 510 nm. All experiments were conducted in independent biological triplicate. The obtained data were analyzed with Graphpad Prism 5 using the dose–response two-parameter Hill slope equation (eq 1) to obtain the half-maximal effective concentrations EC50 (defined as the concentration of drug that kills 50% of cells, compared to the untreated control). [drawing 1] 1

Data set [5] relates to PC-3 cells. The data set is described as above. It counts as cell-based, human. As to conditions: for EC50: PC-3 2D monolayer, not washed, SRB at 96 h, n = 3. As for the experimental part: as §1
Data set [6] deals with U87MG cells. The data set is described as above. The class given is cell-based, human. As to conditions: for EC50: U87MG 2D monolayer, not washed, SRB at 96 h, n = 3; for PI (EC50,dark/EC50,light): U87MG. The procedure:
as §1

In data set [7] the test system is U87MG cells. The data set is described as follows: Apopxin/Nuclear Green DCS1 double-staining cell death mode study. As to conditions: 20 μM, 24 h incubation, 1 h after green light (13.1 J/cm^2), flow cytometry. It counts as cell-based, human. The procedure:
After 24 h of incubation, one plate labeled light was irradiated for 20 min using 520 nm green light (13.1 J/cm^2), and then both plates were allowed to incubate further for 1, 2, 6, or 24 h in a normoxia incubator. After incubation, the cells were trypsinized, collected, and washed with cold PBS twice. […] Cells after staining were detected by flow cytometry (CytoFLEX flow cytometer) immediately. Control groups with only assay buffer, only buffer and Apopxin Deep Red Indicator, only buffer and Nuclear Green DCS1, and all three were included to be used for gating during data analysis. Parameters APC (638 nm excitation, 660/10 nm emission) and FITC (488 nm excitation, 525/40 nm emission) were used considering their similar excitation/emission wavelength with two detectors Apopxin Deep Red Indicator, Ex/Em = 630/660 nm (apoptosis), and Nuclear Green DCS1, Ex/Em = 490/520 nm (necrosis).

[8] abbreviates: 1% O2, dark, 24 h treatment, SRB at 96 h, read-out: EC50,dark.
[9] abbreviates: 1% O2, 520 nm, 7.22 mW/cm^2, 13.1 J/cm^2, 30 min, SRB at 96 h, read-out: EC50,light.
Where [10] appears, read: 21% O2, dark, 24 h treatment, SRB at t = 96 h, read-out: EC50,dark.
Setting [11] is: 21% O2, 24 h treatment, 520 nm, 10.9 mW/cm^2, 13.1 J/cm^2, 20 min, SRB at 96 h, read-out: EC50,light.
The mark [12] stands for this setting: 1% O2, dark, 24 h treatment, read-out: EC50,dark.
Where [13] appears, read: 1% O2, 520 nm, 7.22 mW/cm^2, 13.1 J/cm^2, 30 min, read-out: EC50,light.
Setting [14] is: 21% O2, dark, 24 h treatment, read-out: EC50,dark.
[15] abbreviates: 21% O2, 520 nm, 10.9 mW/cm^2, 13.1 J/cm^2, 20 min, read-out: EC50,light.

Like-named read-outs stand apart in the source and are kept apart here.

On to “[Ru(Ph2phen)2(κ^S,κ^N-(Ac-MRGDH-NH2))]Cl2 (sidechain bridge or staple) [Δ-[1]Cl2] [cyclic ruthenium-peptide conjugate, Ac-MRGDH-NH2 coordinated via Met S and His N]”, for which the DLS size distribution result is on record as “around 100 nm” in data set [1] (50 μM in Opti-MEM with 2.5% FCS) and “above 1 μm” in data set [1] (50 μM in Opti-MEM without FCS). Also, in data set [2], the “Ratio of L/D (light/dark ROS ratio)” value is 8.24. Further, the “log P (octanol-water partition coefficient)” value in data set [3] stood at 0.00 ± 0.02. Further, the EC50 (commonly the concentration that produces a half-maximal response) in data set [4] (setting [8]) turned out to be 50.1 µM; in data set [4] (setting [9]), 17.3 µM; in data set [4] (setting [10]), 72.5 µM; in data set [4] (setting [11]), 4.3 µM; in data set [5] (setting [12]) it was 61.4 µM; in data set [5] (setting [13]), 50.7 µM. The EC50 in data set [5] (setting [14]) came to 52 µM; in data set [5] (setting [15]) it was 6 µM; in data set [6] (setting [12]), 42.7 µM; in data set [6] (setting [13]), 18.8 µM; in data set [6] (setting [14]), 39.5 µM; in data set [6] (setting [15]), 3.6 µM. Besides, the “PI (EC50,dark/EC50,light)” value in data set [4] (A549, 1% O2) is reported as 2.9; in data set [4] (A549, 21% O2), 17; in data set [5] (PC-3, 1% O2), 1.2; in data set [5] (PC-3, 21% O2), 9; in data set [6] (1% O2), 2.3; in data set [6] (21% O2), 11. The cell death mode entry in data set [7] was “died mainly via necrosis”.
With “[Ru(Ph2phen)2(κ^S,κ^N-(Ac-MRGDH-NH2))]Cl2 (sidechain bridge or staple) [Λ-[1]Cl2] [cyclic ruthenium-peptide conjugate, Ac-MRGDH-NH2 coordinated via Met S and His N]”, in data set [1] (50 μM in Opti-MEM with 2.5% FCS, 24 h (Figure S20)), the “nanoparticle formation (DLS)” value is given as “Nanoparticles of similar size were observed”. Moreover, the “Ratio of L/D (light/dark ROS ratio)” value in data set [2] was 7.03. The “log P (octanol-water partition coefficient)” value in data set [3] is reported as −0.03 ± 0.02. Moreover, the EC50 in data set [4] (setting [8]) was found to be 51 µM; in data set [4] (setting [9]) it was 19 µM; in data set [4] (setting [10]), 66.8 µM; in data set [4] (setting [11]), 5 µM; in data set [5] (setting [12]) it was 74.3 µM; in data set [5] (setting [13]), 46.5 µM. Besides, the EC50 in data set [5] (setting [14]) was 66.6 µM; in data set [5] (setting [15]) it was 5.3 µM; in data set [6] (setting [12]), 41.4 µM; in data set [6] (setting [13]) it was 19 µM; in data set [6] (setting [14]), 41.6 µM; in data set [6] (setting [15]) it was 3.8 µM. The “PI (EC50,dark/EC50,light)” value in data set [4] (A549, 1% O2) worked out at 2.7; in data set [4] (A549, 21% O2), 13; in data set [5] (PC-3, 1% O2), 1.5; in data set [5] (PC-3, 21% O2), 12; in data set [6] (1% O2) it was 2.2. For the same substance, the cell death mode entry in data set [7] is given as “died mainly via necrosis”.

For the origin of these results see publication PMC10347550, “Cyclic Ruthenium-Peptide Conjugates as Integrin-Targeting Phototherapeutic Prodrugs for the Treatment of Brain Tumors” (Journal of the American Chemical Society, 2023).
